In publication PMC3625590, “NBM-T-L-BMX-OS01, Semisynthesized from Osthole, Is a Novel Inhibitor of Histone Deacetylase and Enhances Learning and Memory in Rats” (Evidence-based Complementary and Alternative Medicine : eCAM, 2013):

How the values were obtained:
[1] = system: primary hippocampal neurons; assay: MTT cell survival assay; type: cell-based, Sprague-Dawley rats; details: 1, 2.5, 5 and 10 μM, DIV 5, 24 h
Procedure: The primary hippocampal culture was prepared as described previously. To culture embryonic hippocampal primary neurons, pregnant Sprague-Dawley rats were purchased from the National Laboratory Center in Taiwan. The hippocampal tissue from the embryos of the Sprague-Dawley rats (E19) was dissociated with 100 U/mL of papain (Sigma-Aldrich) and plated onto poly-L-lysine-coated coverslips at a density of 1 × 10^4 cells/cm^2 with a minimal essential medium containing 5% calf serum, 5% horse serum, and 50 ng/mL insulin-transferrin-selenite (Sigma-Aldrich). Three hours after plating, the medium was replaced with 2% of a B27-neurobasal medium (Invitrogen, Carlsbad, CA, USA) containing 0.5 mM glutamine and 12.5 μM glutamate.
Cell viability was evaluated by an MTT (3-(4,5-dimethylthiazol-2-yl)-2,5-diphenyl tetrazolium bromide, Sigma-Aldrich) assay 24 h after SAHA and BMX treatment at concentrations of 0, 1, 2.5, 5, and 10 μM. The protocol was performed as described previously. Cells were incubated with an MTT (0.5 mg/mL) reagent (Sigma-Aldrich) at 37°C for 1 h. The MTT solution was removed, and DMSO was added to the wells shaken at room temperature for 1 h. The amount of MTT formazan product was quantified by measuring its absorbance at 570 and 630 nm by using an ELISA plate reader (SpectraMax M2 Microplate Readers, Molecular Devices, Sunnyvale, CA, USA).

[2] = system: naïve rats; assay: Water-maze learning, naïve rats; type: in vivo, Sprague-Dawley rats; details: 5 mg/kg/d i.p.
Procedure: SAHA was supplied by NatureWise Biotech and Medicals Corporation (Taipei, Taiwan). […] (St. Louis, MO, USA). The BMX and SAHA stock (100 mg/mL) was dissolved in DMSO and diluted with saline to a final concentration of 0.5 mg/mL (in 0.5% DMSO/saline). […] SD rats were randomly divided into 3 groups. For the naïve animal experiments, the BMX-injected or SAHA-injected groups were injected with BMX (5 mg/kg/d) or SAHA (5 mg/kg/d) intraperitoneally 7 d prior to behavioral experiments and during the experimentation. The control group received the 0.5% DMSO/saline injection. The injection volume was 10 μL/g of body weight. The injections were performed once per day. For the amnesia experiment, the protocol was adopted from previous studies with modifications. […] The control group received the 0.5% DMSO/saline injection. The injection volume was 10 μL/g of body weight. […] The method was adopted from that of a previous study with modifications. A plastic circular pool 2.0 m in diameter and 0.6 m in height was filled with water (25 ± 2°C) to a depth of 20 cm. A circular platform (8 cm in diameter) was placed at a specific location from the edge of the pool and submerged 2-3 cm below the water surface. Water was made cloudy by adding toxic-free dye. Distinctive visual cues were set on the wall. For spatial learning, animals were subjected to 3 trials per day, with one trial early in the morning, one trial at noon, and another in the late afternoon. The training procedure lasted 4 days, and a total of 12 trials were given. This procedure was adopted because spaced training is a better paradigm to facilitate memory consolidation. For these trials, the rats were positioned at different starting points spaced equally around the perimeter of the pool in random order. They had 120 s to find the hidden platform. […] The time each animal took to reach the platform was recorded as the escape latency. […] The rats were placed in the pool with the platform removed, and the time they spent in each quadrant (Quadrants 1, 2, 3, and 4) was recorded. […]

[3] = system: Sco-induced amnesia rats; assay: Water-maze learning, Sco-induced memory impairment; type: in vivo, Sprague-Dawley rats; details: Sco 1.5 mg/kg/d; BMX or SAHA 5 mg/kg/d i.p.
Procedure: SAHA was supplied by NatureWise Biotech and Medicals Corporation (Taipei, Taiwan). […] (St. Louis, MO, USA). The BMX and SAHA stock (100 mg/mL) was dissolved in DMSO and diluted with saline to a final concentration of 0.5 mg/mL (in 0.5% DMSO/saline). […] SD rats were randomly divided into 3 groups. For the naïve animal experiments, the BMX-injected or SAHA-injected groups were injected with BMX (5 mg/kg/d) or SAHA (5 mg/kg/d) intraperitoneally 7 d prior to behavioral experiments and during the experimentation. The control group received the 0.5% DMSO/saline injection. The injection volume was 10 μL/g of body weight. The injections were performed once per day. For the amnesia experiment, the protocol was adopted from previous studies with modifications. […] The control group received the 0.5% DMSO/saline injection. The injection volume was 10 μL/g of body weight. […] The method was adopted from that of a previous study with modifications. A plastic circular pool 2.0 m in diameter and 0.6 m in height was filled with water (25 ± 2°C) to a depth of 20 cm. A circular platform (8 cm in diameter) was placed at a specific location from the edge of the pool and submerged 2-3 cm below the water surface. Water was made cloudy by adding toxic-free dye. Distinctive visual cues were set on the wall. For spatial learning, animals were subjected to 3 trials per day, with one trial early in the morning, one trial at noon, and another in the late afternoon. The training procedure lasted 4 days, and a total of 12 trials were given. This procedure was adopted because spaced training is a better paradigm to facilitate memory consolidation. For these trials, the rats were positioned at different starting points spaced equally around the perimeter of the pool in random order. They had 120 s to find the hidden platform. If a rat could not find the platform, it was guided to the platform and was allowed to remain there for 20 s. The time each animal took to reach the platform was recorded as the escape latency. A probe trial of 120 s was given on day 5 to test their memory retention. The rats were placed in the pool with the platform removed, and the time they spent in each quadrant (Quadrants 1, 2, 3, and 4) was recorded. Quadrant 4 is the target quadrant. For the trained and swimming control experiments, rats in the trained group were subjected to the regular water maze learning procedure. At the end of the experiment, the rats were subjected to visible platform learning. For visible platform learning, a flag was mounted on the platform, and the platform was raised 2.5 cm above the surface of the water. In addition, the dye had not been added, so that the animals could see the location of the platform from the water. […]

[4] = system: Sco-induced amnesia rats; assay: Novel object recognition, Sco-induced memory impairment; type: in vivo, Sprague-Dawley rats; details: Sco 1.5 mg/kg/d; BMX or SAHA 5 mg/kg/d i.p.; 8 h
Procedure: SAHA was supplied by NatureWise Biotech and Medicals Corporation (Taipei, Taiwan). […] (St. Louis, MO, USA). The BMX and SAHA stock (100 mg/mL) was dissolved in DMSO and diluted with saline to a final concentration of 0.5 mg/mL (in 0.5% DMSO/saline). […] SD rats were randomly divided into 3 groups. For the naïve animal experiments, the BMX-injected or SAHA-injected groups were injected with BMX (5 mg/kg/d) or SAHA (5 mg/kg/d) intraperitoneally 7 d prior to behavioral experiments and during the experimentation. The control group received the 0.5% DMSO/saline injection. The injection volume was 10 μL/g of body weight. The injections were performed once per day. For the amnesia experiment, the protocol was adopted from previous studies with modifications. […] The control group received the 0.5% DMSO/saline injection. The injection volume was 10 μL/g of body weight. […] The method used was adopted from that of a previous study with modifications. During familiarization, rats were allowed to explore 2 identical objects in an open field box (90 × 70 × 60 cm) for 5 min. The criteria used for exploration were a distance less than 1.5 cm between the rat and the object or direct contact with the object. […] The time that each rat spent exploring the 2 objects during a 5 min period was recorded. […]

**Q.** Which results are given for `O=C(CCCCCCC(=O)Nc1ccccc1)NO` [SAHA, suberoylanilide hydroxamic acid, reference compound]?
**A.** survival rate of primary hippocampal neurons (MTT) [1]: reduced the survival rate of the hippocampal neurons at concentrations of 2.5, 5, and 10 μM; escape latency in finding the hidden platform [2]: shortened escape latency; visual discrimination ability, motor coordination, and motivational state (swimming speed, visible platform learning) [2]: Neither BMX nor SAHA affects; probe trial, time spent in target quadrant ([2]; day 5): showed no difference compared with the control group; escape latency in finding the hidden platform [3]: attenuates Sco-induced longer escape latency; probe trial, time spent in target quadrant [3]: spent more time in the target quadrant; exploratory preference for the novel object (NO) [4]: showed no exploratory preference for the NO
